According to PMC9321663, “The DevTox Germ Layer Reporter Platform: An Assay Adaptation of the Human Pluripotent Stem Cell Test” (Toxics, 2022):
Like-named read-outs stand apart in the source and are kept apart here.

Experiments:
[1] = tested on: BRA (mesoderm marker) in RUES2-GLR cells; test: DevTox GLR-Endo assay: increase in percent BRA-positive cells (AEID 3096, Bra_up); assay type: cell-based, human; conditions: for HIT−CALL: tcpl plot AEID3096, COFF 0.774; for MAX_MEAN: tcpl plot AEID3096, maximum mean response; for MAX_MED: tcpl plot AEID3096, maximum median response
Experimental: (§1) The total test chemical incubation period was 48 h.
(§2) (Supplementary Materials).

[2] = tested on: SOX17 (endoderm marker) in RUES2-GLR cells; test: DevTox GLR-Endo assay: decrease in percent SOX17-positive cells (AEID 3094, Sox17_dn); conditions: for Hit Call: Table S2, SOX17-positive cells, cutoff 3*bmad; for DevTox ACC: Table S2, percent SOX17-positive cells; for DevTox-GLR Endo ACC: activity concentration at cutoff, SOX17-positive cells; for HIT−CALL: tcpl plot AEID3094, COFF 20.3; for hit call designation (in words): DevTox GLR-Endo prediction against developmental toxicant classification; for effect on SOX17-positive cells (in words): 48 h exposure during directed endoderm differentiation
In short: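 Readouts are loss of SOX17-positive fraction and reduced cell number in endoderm-differentiating RUES2-GLR cells after 48 h of chemical exposure. Controls: undifferentiated and differentiated cells, 0.2% DMSO, and 1 µM SB431542; at least four biological replicates.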

[3] = tested on: o/c ratio in H9 embryonic stem cells; conditions: Teratogen Index, o/c ratio; cited from earlier work
H9 human ESC line = conditions: cited from earlier work
[4] = tested on: SOX17 (endoderm marker) in RUES2-GLR cells; test: DevTox GLR-Endo assay: increase in percent SOX17-positive cells (AEID 3093, Sox17_up); assay type: cell-based, human; conditions: for Emax: Homo sapiens; for HIT−CALL: tcpl plot AEID3093, COFF 20.3
Experimental: as §1, §2

[5] = tested on: SOX2 (ectoderm and pluripotency marker) in RUES2-GLR cells; test: DevTox GLR-Endo assay: increase in percent SOX2-positive cells (AEID 3095, Sox2_up); conditions: for MAX_MEAN: tcpl plot AEID3095, maximum mean response; for MAX_MED: tcpl plot AEID3095, maximum median response;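 for all read-outs here: cells exposed to test chemicals for 48 h in total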
[6] = cited from earlier work; for Development Toxicant Classification: Table S2; for Classification: developmental toxicant classification (Teratogen / Non-Teratogen) of reference and training chemicals, ref DOI per chemical: 10.1093/toxsci/kft239, 10.1093/toxsci/kfaa014, 10.1177/026119290203000204, 10.1038/s41598-020-59542-x; for DT Class.: developmental toxicant classification
[7] = DevTox GLR-Endo assay: decrease in total cell count, cytotoxicity (AEID 3098, CellCount_dn); conditions: human, RUES2-GLR cells under directed endoderm differentiation
RUES2-GLR cells = test: as above; conditions: for Emax: Homo sapiens, read-out: Cell Count % Max Inhibition
[8] = tested on: SOX17 in H9 human ESC line; conditions: SOX17 half-maximal inhibition concentration; read-out: hPST IC50; cited from earlier work
[9] = Homo sapiens, 48 h, read-out: DevTox-GLR Endo AC50 (µM), SOX17 half-maximal activity concentration, 48 h exposure
[10] = Homo sapiens, read-out: DevTox % Max Inhibition
[11] = Homo sapiens, read-out: MAX_MEAN
[12] = Homo sapiens, read-out: MAX_MED
[13] = Homo sapiens, read-out: ga (winning model), tcpl plot AEID3094, gain parameter of winning curve fit (log concentration, µM axis), hit calls only (converted)
[14] = Homo sapiens, read-out: tp (winning model)
[15] = cytotoxicity half-maximal concentration
[16] = tcpl plot AEID3093, maximum mean response, read-out: MAX_MEAN
[17] = tcpl plot AEID3093, maximum median response, read-out: MAX_MED
[18] = chemicals common with quickPredict

Cell Count ACC (RUES2-GLR cells; human, 48 h) | SMILES | HIT−CALL [1] | MAX_MEAN [1] | MAX_MED [1] | Emax [2, 10] | Emax [2, 11] | Emax [2, 12] | Hit Call [2] | DevTox ACC ([2]; 48 h exposure) | HIT−CALL [2] | quickPredict TI [3] | Emax [4, 16] | Emax [4, 17] | HIT−CALL [4] | MAX_MEAN [5] | MAX_MED [5] | Development Toxicant Classification [6] | Classification [6] | DT Class. [6, 18] | Emax (RUES2-GLR cells) | also measured
57.7753 µM | NC(=O)N1c2ccccc2C=Cc2ccccc21 [Carbamazepine] | 1 | 1.14 Percent Activity | 1.04 Percent Activity | 52.2% | 52.1% | 52.2% | Positive | 64.024 µM | 1 | 2.29 µM | 12.3% | 12.1% | 0 | 0.534 Percent Activity | 0.576 Percent Activity | Positive | Teratogen | Pos | 39.1% | AC50 [2, 9]: 103 µM; AC50 [2, 13]: 102 µM; Emax [2, 14]: 65.3%; DevTox-GLR Endo ACC ([2]; 48 h exposure): 64.02 µM; hPST TC50 (H9 human ESC line; [15]): 190 nM; hPST TC50 (H9 human ESC line; hPST cytotoxicity): 190 nM; DT Class. ([6]; chemicals common with hPST): Pos; CC50 at 48 h [7]: 137000 nM; DevTox-GLR Endo CC (RUES2-GLR cells; human, 48 h): 57.78 µM; IC50 [8]: 80 nM
– | C[C@@H]1C[C@H]2[C@@H]3CCC4=CC(=O)C=C[C@]4(C)[C@@]3(F)[C@@H](O)C[C@]2(C)[C@@]1(O)C(=O)CO [Dexamethasone] | 0 | 0.923 Percent Activity | 0.979 Percent Activity | – | – | – | Negative | >200 µM | 1 | 37.7 µM | – | – | 0 | 0.622 Percent Activity | 0.482 Percent Activity | Positive | Teratogen | Pos | – | hit call designation (in words) [2]: borderline calls; ga (winning model) ([2]; tcpl plot AEID3094, gain parameter of winning curve fit (log concentration, µM axis), hit calls only): −6.88; MAX_MEAN ([2]; tcpl plot AEID3094, maximum mean response): 20.7 Percent Activity; tp (winning model) ([2]; tcpl plot AEID3094, top of winning curve fit (Hill or gain-loss), hit calls only): 41.8; MAX_MEAN ([4]; tcpl plot AEID3093, maximum mean response): −0.0942 Percent Activity; MAX_MED ([4]; tcpl plot AEID3093, maximum median response): 0.457 Percent Activity; Cell Count ACC (RUES2-GLR cells): 13.83 µM; DevTox-GLR Endo CC (RUES2-GLR cells): 13.83 µM; effect on cell count (in words) (RUES2-GLR cells): significant cell loss that did not impact SOX17-positive populations
90.2805 µM | Cc1cn([C@H]2C=C[C@@H](CO)O2)c(=O)[nH]c1=O [Stavudine] | 1 | 1.06 Percent Activity | 1.06 Percent Activity | 11.4% | 13.5% | 11.4% | Negative | >200 µM | 0 | 32.5 µM | 8.07% | 10.6% | 0 | 1.54 Percent Activity | 0.512 Percent Activity | Positive | Teratogen | Pos | 23.9% | hit call designation (in words) [2]: false negative; Emax ([2]; Homo sapiens, read-out: maximum observed effect level class (% max inhibition)): 0 to 20%; effect on cell count (in words) (RUES2-GLR cells): significant decreases in cell count; DevTox-GLR Endo CC (RUES2-GLR cells; human, 48 h): 90.28 µM; effect on cell count (in words) (RUES2-GLR cells; human, 48 h): significant cell loss that did not impact SOX17-positive populations
>200 µM | O=C1CCC(N2C(=O)c3ccccc3C2=O)C(=O)N1 (stereo not shown) [Thalidomide] | 0 | 0.925 Percent Activity | 0.968 Percent Activity | 79.1% | 78% | 79.1% | Positive | 0.2523 µM | 1 | 1.27 µM | 4.62% | 3.35% | 0 | 0.64 Percent Activity | 0.473 Percent Activity | Positive | Teratogen | Pos | 19.5% | effect on SOX17-positive cells (in words) [2]: significant reductions in the SOX17-positive sub-population; effect on SOX17-positive cells (in words) ([2]; listed as thalidomide): concentration-dependent loss of SOX17-positive cells; IC50 ([2]; Homo sapiens, 48 h): 1710 nM; AC50 [2, 9]: 1.64 µM; AC50 [2, 13]: 1.64 µM; Emax [2, 14]: 81.4%; DevTox-GLR Endo ACC ([2]; 48 h exposure): 0.25 µM; % Max Inhibition ([2]; maximum inhibition of SOX17-positive cells, reference chemical testing, 48 h exposure): 58%; hPST TC50 (H9 human ESC line; [15]): >200000 nM; hPST TC50 (H9 human ESC line; hPST cytotoxicity): > 200000 nM; DT Class. ([6]; chemicals common with hPST): Pos; Developmental Toxicant Classification ([6]; reference chemicals): Positive; CC50 at 48 h [7]: > 200000 nM; effect on cell counts (in words) (RUES2-GLR cells): cell counts remained constant; IC50 [8]: 500 nM
